We go through 57 compounds from ChEMBL document CHEMBL2424638, “6-Bromo-8-(4-[(3)H]methoxybenzamido)-4-oxo-4H-chromene-2-carboxylic Acid: a powerful tool for studying orphan G protein-coupled receptor GPR35” (J Med Chem, 2013).

What is called Ki is a dissociation constant, usually derived from enzyme kinetics or from competition with a known ligand. Low readings indicate tighter binding, high ones weaker binding. One may read the EC50 as the concentration that produces a half-maximal response. As usually defined, the Emax is the greatest response seen or fitted, relative to the assay's reference. One may read the IC50 as the concentration needed to halve the response being measured. As usually defined, the inhibition is the change of the read-out against control, counted positive when it falls. Broadly, the Kd is the constant that tells how readily two partners part at equilibrium.

Test [1] has as its target T1, G-protein coupled receptor 35 (Homo sapiens, UniProt Q9HC97). Briefly: biochemical. The class given is cell-based, CHO.
Description: Displacement of [3H]PSB-13253 from human recombinant GPR35 exprssed in CHO cells by liquid scintillation counting analysis
For test [2], the target named is T1, G-protein coupled receptor 35. In words: Agonist activity at C-terminal beta-galactosidase tagged human recombinant GPR35 expressed in CHO cells after 90 mins by beta-arrestin recruitment assay. The format is cell-based. (Recruitment of arrestin is a read-out of receptor activation apart from second messengers.)
For test [3] the target is unchanged. In words: Agonist activity at C-terminal beta-galactosidase tagged human recombinant GPR35 expressed in CHO cells at 100 uM after 90 mins by beta-arrestin recruitment assay relative to zaprinast. The class given is cell-based.
Test [4] has the same target. In words: Antagonist activity at C-terminal beta-galactosidase tagged human recombinant GPR35 expressed in CHO cells after 90 mins by beta-arrestin recruitment assay. The class given is cell-based.
Test [5] shares this target. In words: Antagonist activity at human Gal4-VP16 fused GPR35 expressed in human U2OS cells assessed as beta arrestin translocation by reporter gene assay. The class given is cell-based.
Test [6] shares this target. In words: Antagonist activity at human GPR35 expressed in human HT29 cells after 1 hr by DMR assay. The class given is cell-based. Particulars: ht-29.
For test [7] the target is unchanged. In words: Agonist activity at human GPR35 expressed in HEK293T cells at 5 uM by EYPF-based beta-arrestin-2 luciferase reporter gene assay. The class given is cell-based, HEK-293T. In general terms: Reporter assays use an easily measured gene product as a stand-in for the process of interest.
The target is the same in test [8]. The conditions noted are these: CHO, 5 nM.
Test [9] shares this target. The conditions noted are these: CHO, 5 nM. This is another data set of the same source.
The target is the same in test [10]. The conditions noted are these: CHO, 5 nM. This is another data set of the same source.
For test [11] the target is unchanged. The conditions noted are these: CHO, 5 nM. The source holds these as a separate data set.
For test [12] the target is unchanged. The conditions noted are these: CHO, 5 nM. This is another data set of the same source.
For test [13] the target is unchanged. Briefly: Agonist activity at human GPR35 expressed in CHO cells assessed as increase in intracellular Ca2+ measured over 20 secs by Aequorin assay. The format is functional, cell-based.
Test [14] shares this target. In words: Displacement of [3H]PSB-13253 from human recombinant GPR35 exprssed in CHO cells at 10 uM by liquid scintillation counting analysis. The class given is cell-based.
For test [15] the target is unchanged. In words: Binding affinity to human recombinant GPR35 expressed in CHO cells after 150 mins by liquid scintillation counting analysis.
The target is the same in test [16]. In words: Binding affinity to human recombinant GPR35 expressed in CHO cells by scintillation counting analysis in absence of MgCl2, NaCl, CaCl2. The format is cell-based.
Test [17] has the same target. Briefly: Competitive binding affinity to human recombinant GPR35 expressed in CHO cells by scintillation counting analysis in presence of CaCl2. The class given is cell-based.
Test [18] shares this target. In words: Competitive binding affinity to human recombinant GPR35 expressed in CHO cells by scintillation counting analysis in presence of MgCl2. The format is cell-based.
The target is the same in test [19]. In words: Agonist activity at human GPR35 by DMR assay.
Test [20] shares this target. In words: Agonist activity at human GPR35 by Ca+2 release assay.

T1 sequence (Q9HC97 whole entry): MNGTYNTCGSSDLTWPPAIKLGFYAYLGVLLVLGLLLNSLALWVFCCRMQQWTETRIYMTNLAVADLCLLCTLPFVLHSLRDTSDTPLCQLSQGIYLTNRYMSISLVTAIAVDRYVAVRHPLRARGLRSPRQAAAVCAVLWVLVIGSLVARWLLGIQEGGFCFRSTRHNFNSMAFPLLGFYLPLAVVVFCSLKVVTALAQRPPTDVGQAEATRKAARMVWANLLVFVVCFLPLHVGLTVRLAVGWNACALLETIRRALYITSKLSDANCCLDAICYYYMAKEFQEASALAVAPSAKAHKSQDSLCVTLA

In the case of `O=C(O)c1cc(=O)c2cc(F)cc(NC(=O)c3ccc(Cl)cc3Cl)c2o1`, the affinity in [1], expressed as Ki, was 0.00412 µM.
`O=C(Nc1cccc2c(=O)cc(C(=O)O)oc12)c1ccc(OCC2CC2)cc1`: the affinity in test [1], expressed as Ki, was 3.71 µM.
The same measure, in the same setting: under `Cc1cccc(C(=O)Nc2cc(Br)cc3c(=O)cc(C(=O)O)oc23)c1` stands 0.128 µM.
Turning to `COc1ccc(C(=O)Nc2cc(Cl)cc3c(=O)cc(C(=O)O)oc23)c(F)c1`, the half-maximal effective concentration (EC50) in [2] came out at 0.00606 µM. This compound also had a Ki in test [1] of 0.00192 µM. The Emax in test [3] turned out to be 111%.
In the case of `Nc1cc(Br)cc2c(=O)cc(C(=O)O)oc12`, the Ki in test [1] was 3.01 µM.
The same measure, in the same setting: the result for `O=C(Nc1cc(Cl)cc2c(=O)cc(C(=O)O)oc12)c1ccccc1` reads 0.138 µM.
On the same count and under the same terms, the result for `COc1ccc(C(=O)Nc2cc(Br)cc3c(=O)cc(C(=O)O)oc23)nc1` reads 0.0568 µM; that for `O=C(Nc1cccc2c(=O)cc(C(=O)O)oc12)c1ccccc1`, 3.29 µM; that for `COc1ccc(C(=O)Nc2cc(F)cc3c(=O)cc(C(=O)O)oc23)cc1`, 0.0254 µM.
Compound `O=C(Nc1cc(Br)cc2c(=O)cc(C(=O)O)oc12)c1ccccc1` showed a Ki in test [1] of 0.0816 µM.
As for `COc1cc(F)c(C(=O)Nc2cc(Br)cc3c(=O)cc(C(=O)O)oc23)c(F)c1`, in test [2], the EC50 worked out at 0.00554 µM. This compound also yielded a Ki in test [1] of 0.000589 µM. Also, the Emax in test [3] was 119%.
`COc1ccc(C(=O)Nc2cc(Br)cc3c(=O)cc(C(=O)O)oc23)cn1` showed a Ki in [1] of 0.0257 µM.
Same read-out and setting: under `O=C(Nc1cc(F)cc2c(=O)cc(C(=O)O)oc12)c1ccc(Cl)c(Cl)c1` stands 0.0115 µM; under `Cc1ccc(C(=O)Nc2cccc3c(=O)cc(C(=O)O)oc23)cc1`, 0.697 µM.
As to `COC(=O)c1cnn(-c2ccc(F)cc2F)c1/C=N/NC(=S)NC(C)(C)C`, the IC50 in test [4] was determined as 0.574 µM; in [5], 0.2 µM; in test [6], 10.4 µM. This compound also came in with a Ki in [1] of 0.0422 µM.
For the compound `COc1ccc(C(=O)Nc2cc(OC)cc3c(=O)cc(C(=O)O)oc23)cc1`, the concentration giving a half-maximal response (EC50) in test [2] is 0.0255 µM. The compound further yielded a Ki in test [1] of 0.0205 µM. In test [3], the Emax amounted to 124%.
`O=C(Nc1cccc2c(=O)cc(C(=O)O)oc12)c1ccc(C(F)(F)F)cc1`: the Ki in test [1] came out at 10.3 µM.
Compound `COc1ccc(C(=O)Nc2cc(Br)cc3c(=O)cc(C(=O)O)oc23)c(Cl)c1` gave a Ki in [1] of 0.00112 µM.
For `COc1ccc(C(=O)Nc2cc(Br)cc3c(=O)cc(C(=O)O)oc23)c(F)c1`, in test [2], the EC50 was found to be 0.00445 µM. In addition, the Ki in test [1] was 0.00137 µM. Besides, the Emax in [3] amounted to 120%.
The matching figures for `COc1ccc(C(=O)Nc2cc(C)cc3c(=O)cc(C(=O)O)oc23)cc1`: 0.0377 µM, 0.0428 µM and 118%.
Turning to `O=C(Cc1ccccc1)Nc1cccc2c(=O)cc(C(=O)O)oc12`, affinity in test [1] was put at a Ki of 2.72 µM.
On to `O=C(O)COc1ccc(/C=C2\SC(=O)NC2=O)cc1`, for which the figures for the EC50 in [2] and in test [7] were 0.349 µM and 1.4 µM, respectively. The same compound registered a Ki in test [1] of 0.0508 µM. For the same compound, the Emax in [3] was found to be 107%.
Take `NS(=O)(=O)c1cc(C(=O)O)c(NCc2ccco2)cc1Cl`: the Emax in [3] worked out at 96%.
As to `COc1ccc(C(=O)Nc2cc(Br)cc3c(=O)cc(C(=O)O)oc23)cc1`, the T1/2 in test [8] came out at 9.91 min; in test [9] it was 7.8 min. Also, the inhibition in test [10] is 85%; in test [11] it was 65%; in test [12], 90%. Further, in test [1], the Ki came to 0.00518 µM.
In turn, `O=C(Nc1cc(Br)cc2c(=O)cc(C(=O)O)oc12)c1ccc(Cl)cc1` showed a Ki in test [1] of 0.00479 µM.
Consider `O=C(Nc1cc(Br)cc2c(=O)cc(C(=O)O)oc12)c1ccc(Cl)c(Cl)c1`, for which the EC50 in test [2] turned out to be 0.0251 µM. This compound came in with a Ki in [1] of 0.00218 µM.
As for `O=C(O)c1cc2ccccc2c(Cc2c(O)c(C(=O)O)cc3ccccc23)c1O`, in test [3], the Emax was determined as 95%.
For the compound `COc1ccc(C(=O)Nc2cc(Br)cc3c(=O)cc(C(=O)O)oc23)cc1F`, in [2], the EC50 was 0.00437 µM. In addition, affinity in test [1] was put at a Ki of 0.00164 µM. Also, in test [3], the Emax was 120%.
`CCCOc1ccc(C(=O)Nc2cccc3c(=O)cc(C(=O)O)oc23)cc1` gave a Ki in test [1] of 8.06 µM.
Still for that read-out and setting: under `COc1ccc(C(=O)Nc2cc(Br)cc3c(=O)cc(C(=O)O)oc23)cc1OC` stands 0.228 µM; under `Cc1cccc(C(=O)Nc2cccc3c(=O)cc(C(=O)O)oc23)c1`, 4.78 µM.
On to `CCOC(=O)c1cc(=O)c2cc(F)cc(NC(=O)c3ccc(OC)cc3)c2o1`, for which, in test [1], the affinity corresponds to a Ki of 0.198 µM.
In [1], `COc1ccc(C(=O)Nc2cccc3c(=O)cc(C(=O)O)oc23)cc1` gave a Ki of 0.221 µM.
Still for that read-out and setting: the result for `O=C(O)c1cc(=O)c2cc(Br)cc(NC(=O)c3ccc(Cl)cc3Cl)c2o1` reads 0.000938 µM.
With `O=C(Nc1cccc2c(=O)cc(C(=O)O)oc12)c1ccc(Br)cc1`, in [1], the Ki came out at 0.233 µM.
In test [1], `CC(=O)Nc1cccc2c(=O)cc(C(=O)O)oc12` registered a Ki of 18.5 µM.
For the compound `O=C(O)c1cc(=O)c2ccccc2[nH]1` [TRANSTORINE], the Ki in test [1] stood at 137 µM. Besides, in test [13], the EC50 was 39.2 µM.
With `CCOc1ccc(C(=O)Nc2cc(Br)cc3c(=O)cc(C(=O)O)oc23)cc1`, in [1], the Ki was found to be 0.0984 µM.
The same measure, in the same setting: the result for `CCC(=O)Nc1cccc2c(=O)cc(C(=O)O)oc12` reads 6.77 µM; that for `O=C(Nc1cccc2c(=O)cc(C(=O)O)oc12)c1cccc([N+](=O)[O-])c1`, 4.39 µM; that for `Cc1cccc(C(=O)Nc2cc(Cl)cc3c(=O)cc(C(=O)O)oc23)c1`, 0.25 µM.
Same read-out and setting: the result for `O=C(Nc1cc(Cl)cc2c(=O)cc(C(=O)O)oc12)c1ccc([N+](=O)[O-])cc1` reads 0.183 µM.
As for `O=c1oc2ccccc2c(O)c1Cc1c(O)c2ccccc2oc1=O` [DICUMAROL], the EC50 in test [2] turned out to be 9.78 µM; in test [7], 1.3 µM. The same compound gave a Ki in test [1] of 0.039 µM. Also, the Emax in test [3] stood at 107%.
On to `Nc1cccc2c(=O)cc(C(=O)O)oc12`, for which, in [14], the inhibition was determined as 7%.
In [1], `N#Cc1ccc(C(=O)Nc2cc(Br)cc3c(=O)cc(C(=O)O)oc23)cc1` displayed a Ki of 0.148 µM.
Still for that read-out and setting: under `O=C(Nc1cccc2c(=O)cc(C(=O)O)oc12)c1ccc2ccccc2c1` stands 0.714 µM.
For `[3H]C([3H])([3H])Oc1ccc(C(=O)Nc2cc(Br)cc3c(=O)cc(C(=O)O)oc23)cc1`, the Kd in [15] came out at 0.00527 µM; in test [16] it was 0.115 µM; in [17], 0.00592 µM; in test [18], 0.00565 µM.
In [1], `COc1ccccc1C(=O)Nc1cc(Br)cc2c(=O)cc(C(=O)O)oc12` showed a Ki of 0.331 µM.
Take `O=C(O)c1cc(=O)c2cccc([N+](=O)[O-])c2o1`: in test [1], the affinity, expressed as Ki, was 13.6 µM.
Same read-out and setting: the result for `O=C(O)c1cc(=O)c2cccc(NC(=O)C3CCCCC3)c2o1` reads 3.58 µM; that for `O=C(Nc1cc(Br)cc2c(=O)cc(C(=O)O)oc12)c1ccc2c(c1)OCO2`, 0.015 µM; that for `COC(=O)CC(=O)Nc1cccc2c(=O)cc(C(=O)O)oc12`, 18.6 µM.
In test [1], `O=C(Nc1cccc2c(=O)cc(C(=O)O)oc12)c1ccc2ccccc2n1` showed a Ki of 0.691 µM.
The same measure, in the same setting: the result for `O=C(O)c1cc(=O)c2cc(F)cc(NC(=O)c3cccc(Cl)c3Cl)c2o1` reads 0.119 µM.
For `O=C(O)c1cc(=O)c2c(OCC(O)COc3cccc4oc(C(=O)O)cc(=O)c34)cccc2o1` [CROMOLYN], the EC50 in [19] worked out at 0.52 µM; in test [20], 0.21 µM. For the same compound, the Ki in test [1] is 2.34 µM. The Emax in test [3] is 119%.
In the case of `COc1ccc(C(=O)Nc2cc(Cl)cc3c(=O)cc(C(=O)O)oc23)cc1`, in test [1], the Ki came to 0.0055 µM.
As to `CC1=C(C#N)C(=C(C#N)C#N)OC1(C)c1ccc(Cl)c(Cl)c1` (stereo unspecified), in test [1], affinity was put at a Ki of 0.655 µM.
